Assay results from US12291518B2, “Thyroid hormone receptor agonists and use thereof” (Eccogene Inc., priority 2020, dated 2025).

Legend:
THR beta-LBD = molecular target: T1, THR beta-LBD (Homo sapiens, UniProt P10828); experiment: THR-β Coactivator Peptide Recruitment Assay (LanthaScreen TR-FRET); assay type: biochemical; details: TR-FRET coactivator recruitment, THR beta-LBD 0.5 nM; for EC50: read-out: THRβ EC50
T1 construct: THR beta-LBD (the final concentration is 0.5 nM) was added to the 384-well assay plate; purchased Invitrogen PV4686
T1 sequence (P10828 217-461 limits assumed): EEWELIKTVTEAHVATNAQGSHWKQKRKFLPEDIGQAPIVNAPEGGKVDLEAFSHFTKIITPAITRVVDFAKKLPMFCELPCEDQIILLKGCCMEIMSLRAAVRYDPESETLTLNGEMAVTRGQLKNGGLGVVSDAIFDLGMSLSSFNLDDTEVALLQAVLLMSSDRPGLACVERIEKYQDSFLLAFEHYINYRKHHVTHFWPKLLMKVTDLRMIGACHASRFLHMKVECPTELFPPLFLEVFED
How it was run: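 Agonist-driven coactivator recruitment read as a 520/495 nm TR-FRET emission ratio after 2 h at room temperature. Final concentrations: THR beta-LBD 0.5 nM, fluorescein-SRC2-2 peptide 0.1 nM, terbium anti-GST antibody 2 nM. EC50 from four-parameter dose-response fitting.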

THR alpha-LBD = molecular target: T2, THR alpha-LBD (Homo sapiens, UniProt P10827); experiment: THR-α Coactivator Peptide Recruitment Assay (LanthaScreen TR-FRET); assay type: biochemical; details: TR-FRET coactivator recruitment, THR alpha-LBD 0.25 nM; for EC50: read-out: THRα EC50
T2 construct: except that THR alpha-LBD of a final concentration 0.25 nM was used; purchased Invitrogen PV4687
T2 sequence (P10827 163-410 isoform P10827-2 limits assumed, other chains not shown): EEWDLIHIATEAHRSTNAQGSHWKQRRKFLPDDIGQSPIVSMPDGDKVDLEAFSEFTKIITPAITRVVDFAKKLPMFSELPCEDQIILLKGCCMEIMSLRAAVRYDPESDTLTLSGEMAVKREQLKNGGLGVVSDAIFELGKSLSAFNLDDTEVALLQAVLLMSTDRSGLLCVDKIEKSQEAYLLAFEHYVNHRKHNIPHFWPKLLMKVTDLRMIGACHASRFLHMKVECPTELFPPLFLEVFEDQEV
How it was run: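 TR-FRET coactivator recruitment with THR alpha-LBD at 0.25 nM final, Fluorescein-SRC2-2 peptide 0.1 nM and Tb-labeled anti-GST antibody 2 nM; 2 h incubation at room temperature. 520/495 nm emission ratio fitted to a four-parameter sigmoidal curve to give EC50.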

SMILES	THRβ Emax (THR beta-LBD)	EC50 (THR beta-LBD) [nM]	THRα Emax (THR alpha-LBD)	EC50 (THR alpha-LBD) [nM]
N#Cc1cc(O)c(S(=O)(=O)N[C@H]2C[C@H](O)C2)cc1Oc1c(Cl)cc(-n2nc(C(F)F)c(=O)[nH]c2=O)cc1Cl [Compound 149, 4-cyano-5-[2,6-dichloro-4-[6-(difluoromethyl)-3,5-dioxo-1,2,4-triazin-2-yl]phenoxy]-2-hydroxy-N-(3-hydroxycyclobutyl)benzenesulfonamide]	C (<75)	> 100	C (<40)	> 1000
CCS(=O)(=O)c1cc(Oc2c(Cl)cc(-n3nc(C(F)F)c(=O)[nH]c3=O)cc2Cl)ncc1O [Compound 151, 2-[3,5-dichloro-4-[(4-ethylsulfonyl-5-hydroxy-2-pyridyl)oxy]phenyl]-6-(difluoromethyl)-1,2,4-triazine-3,5-dione]	A (90~110)	< 2	A (85~110)	2 to 200
O=c1[nH]c(=O)n(-c2cc(Cl)c(Oc3cc(S(=O)(=O)C4CCC4)c(O)cn3)c(Cl)c2)nc1C(F)F [Compound 153, 2-[3,5-dichloro-4-[(4-cyclobutylsulfonyl-5-hydroxy-2-pyridyl)-oxy]phenyl]-6-(difluoromethyl)-1,2,4-triazine-3,5-dione]	A (90~110)	< 2	A (85~110)	2 to 200
O=c1[nH]c(=O)n(-c2cc(Cl)c(Cc3cc(S(=O)(=O)N[C@H]4C[C@H](O)C4)c(O)cn3)c(Cl)c2)nc1C(F)F [Compound 156, 2-(2,6-dichloro-4-(6-(difluoromethyl)-3,5-dioxo-4,5-dihydro-1,2,4-triazin-2 (3H)-yl)benzyl)-5-hydroxy-N-((1r,3r)-3-hydroxycyclobutyl)pyridine-4-sulfonamide]	A (90~110)	2 to 20	B (40~85)	> 1000
O=c1[nH]c(=O)n(-c2cc(Cl)c(Oc3cc(S(=O)(=O)NC4COC4)c(O)cn3)c(Cl)c2)nc1C(F)F [Compound 158, 2-(2,6-dichloro-4-(6-(difluoromethyl)-3,5-dioxo-4,5-dihydro-1,2,4-triazin-2(3H)-yl)phenoxy)-5-hydroxy-N-(oxetan-3-yl)pyridine-4-sulfonamide]	A (90~110)	< 2	A (85~110)	2 to 200
Cc1nn(-c2cc(Cl)c(Oc3cc(S(=O)(=O)N[C@H]4C[C@H](O)C4)c(O)cn3)c(Cl)c2)c(=O)[nH]c1=O [Compound 161, 2-(2,6-dichloro-4-(6-methyl-3,5-dioxo-4,5-dihydro-1,2,4-triazin-2(3H)-yl)phenoxy)-5-hydroxy-N-((1r,3r)-3-hydroxycyclobutyl)pyridine-4-sulfonamide]	B (75~90)	20 to 100	B (40~85)	200 to 1000
Cc1nn(-c2cc(Cl)c(Oc3cc(S(=O)(=O)N[C@H]4CCOC4)c(O)cn3)c(Cl)c2)c(=O)[nH]c1=O [Compound 164, (S)-2-(2,6-dichloro-4-(6-methyl-3,5-dioxo-4,5-dihydro-1,2,4-triazin-2(3H)-yl)phenoxy)-5-hydroxy-N-(tetrahydrofuran-3-yl)pyridine-4-sulfonamide]	B (75~90)	20 to 100	B (40~85)	200 to 1000
O=c1cnn(-c2cc(Cl)c(Oc3cc(S(=O)(=O)N[C@H]4C[C@H](O)C4)c(O)cn3)c(Cl)c2)c(=O)[nH]1 [Compound 165, 2-(2,6-dichloro-4-(3,5-dioxo-4,5-dihydro-1,2,4-triazin-2(3H)-yl)phenoxy)-5-hydroxy-N-((1r,3r)-3-hydroxycyclobutyl)pyridine-4-sulfonamide]	C (<75)	20 to 100	B (40~85)	> 1000
Cc1cc(-n2nc(C(F)F)c(=O)[nH]c2=O)cc(C)c1Oc1cc(S(=O)(=O)N[C@H]2C[C@H](O)C2)c(O)cn1 [Compound 166, 2-[4-[6-(difluoromethyl)-3,5-dioxo-1,2,4-triazin-2-yl]-2,6-dimethyl-phenoxy]-5-hydroxy-N-(3-hydroxycyclobutyl)pyridine-4-sulfonamide]	B (75~90)	> 100	B (40~85)	> 1000

Second part, the compound after the results:

THRβ Emax (THR beta-LBD)	EC50 (THR beta-LBD) [nM]	THRα Emax (THR alpha-LBD)	EC50 (THR alpha-LBD) [nM]	SMILES
A (90~110)	2 to 20	A (85~110)	2 to 200	N#Cc1nn(-c2cc(Cl)c(Oc3cc(S(=O)(=O)NC4CCC4)c(O)cn3)c(Cl)c2)c(=O)[nH]c1=O [Compound 150]
A (90~110)	< 2	A (85~110)	< 2	O=c1[nH]c(=O)n(-c2cc(Cl)c(Cc3ccc(O)c(S(=O)(=O)NC4CS(=O)(=O)C4)c3)c(Cl)c2)nc1C(F)F [Compound 152, 5-[[2,6-dichloro-4-[6-(difluoromethyl)-3,5-dioxo-1,2,4-triazin-2-yl]phenyl]methyl]-N-(1,1-dioxothietan-3-yl)-2-hydroxy-benzenesulfonamide]
B (75~90)	2 to 20	B (40~85)	200 to 1000	CS(=O)(=O)Cc1cc(Oc2c(Cl)cc(-n3nc(C(F)F)c(=O)[nH]c3=O)cc2Cl)ncc1O [Compound 154, 2-[3,5-dichloro-4-[[5-hydroxy-4-(methylsulfonylmethyl)-2-pyridyl]oxy]phenyl]-6-(difluoromethyl)-1,2,4-triazine-3,5-dione]
B (75~90)	20 to 100	B (40~85)	200 to 1000	O=c1[nH]c(=O)n(-c2cc(Cl)c(Oc3cc(S(=O)(=O)NC45CCC(O)(C4)C5)c(O)cn3)c(Cl)c2)nc1C(F)F [Compound 159, 2-(2,6-dichloro-4-(6-(difluoromethyl)-3,5-dioxo-4,5-dihydro-1,2,4-triazin-2(3H)-yl)phenoxy)-5-hydroxy-N-(4-hydroxybicyclo[2.1.1]hexan-1-yl)pyridine-4-sulfonamide]
B (75~90)	20 to 100	B (40~85)	> 1000	O=c1[nH]c(=O)n(-c2cc(Cl)c(Oc3cc(S(=O)(=O)NC45CCC(O)(CC4)C5)c(O)cn3)c(Cl)c2)nc1C(F)F [Compound 160, 2-(2,6-dichloro-4-(6-(difluoromethyl)-3,5-dioxo-4,5-dihydro-1,2,4-triazin-2(3H)-yl)phenoxy)-5-hydroxy-N-(4-hydroxybicyclo[2.2.1]heptan-1-yl)pyridine-4-sulfonamide]
B (75~90)	> 100	C (<40)	> 1000	Cc1nn(-c2cc(Cl)c(Oc3cc(S(=O)(=O)N[C@H]4C[C@@H](O)C4)c(O)cn3)c(Cl)c2)c(=O)[nH]c1=O [Compound 162, 2-(2,6-dichloro-4-(6-methyl-3,5-dioxo-4,5-dihydro-1,2,4-triazin-2(3H)-yl)phenoxy)-5-hydroxy-N-((1s,3s)-3-hydroxycyclobutyl)pyridine-4-sulfonamide]
B (75~90)	20 to 100	B (40~85)	200 to 1000	Cc1nn(-c2cc(Cl)c(Oc3cc(S(=O)(=O)N[C@@H]4CCOC4)c(O)cn3)c(Cl)c2)c(=O)[nH]c1=O [Compound 163, (R)-2-(2,6-dichloro-4-(6-methyl-3,5-dioxo-4,5-dihydro-1,2,4-triazin-2(3H)-yl)phenoxy)-5-hydroxy-N-(tetrahydrofuran-3-yl)pyridine-4-sulfonamide]
A (90~110)	2 to 20	A (85~110)	200 to 1000	Cc1cc(-n2nc(C(F)F)c(=O)[nH]c2=O)cc(Cl)c1Oc1cc(S(=O)(=O)N[C@H]2C[C@H](O)C2)c(O)cn1 [Compound 167, 2-[2-chloro-4-[6-(difluoromethyl)-3,5-dioxo-1,2,4-triazin-2-yl]-6-methyl-phenoxy]-5-hydroxy-N-(3-hydroxycyclobutyl)pyridine-4-sulfonamide]
A (90~110)	2 to 20	A (85~110)	2 to 200	C[C@]1(NS(=O)(=O)c2cc(Oc3c(Cl)cc(-n4nc(C(F)F)c(=O)[nH]c4=O)cc3Cl)ncc2O)C[C@H](O)C1 [Compound 168, 2-[2,6-dichloro-4-[6-(difluoromethyl)-3,5-dioxo-1,2,4-triazin-2-yl]phenoxy]-5-hydroxy-N-(3-hydroxy-1-methyl-cyclobutyl)pyridine-4-sulfonamide]
C (<75)	> 100	C (<40)	> 1000	CN1CC(NS(=O)(=O)c2cc(Oc3c(Cl)cc(-n4nc(C(F)F)c(=O)[nH]c4=O)cc3Cl)ncc2O)C1 [Compound 169, 2-(2,6-dichloro-4-(6-(difluoromethyl)-3,5-dioxo-4,5-dihydro-1,2,4-triazin-2(3H)-yl)phenoxy)-5-hydroxy-N-(1-methylazetidin-3-yl)pyridine-4-sulfonamide]
